Tested on: KRAS patient-derived spheroids with HUVEC/MSC, viability
Test: Anticancer human tumor 519858-162-T-J1-PDC patient-derived colon adenocarcinoma cell line growth inhibition [KRAS2]
Details: for viability, T/C: stronger effect = lower value
Summary of the method: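 Combination screen of spheroid viability in tumor-cell co-cultures with endothelial (HUVEC) and mesenchymal stem cell stroma. Each agent was tested in half-log dilutions, topping at clinical Cmax or at 10 microM without a known Cmax.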

[1] = curve of first compound, second compound 0.1 µM
[2] = curve of first compound, second compound 0.316 µM
[3] = curve of first compound, second compound 1 µM
[4] = curve of first compound, second compound 3.16 µM
[5] = curve of first compound, second compound 10 µM
[6] = second compound 0.1 µM, first compound 0.000316 µM
[7] = second compound 0.1 µM, first compound 0.001 µM
[8] = second compound 0.1 µM, first compound 0.00316 µM
[9] = second compound 0.1 µM, first compound 0.01 µM
[10] = second compound 0.1 µM, first compound 0.0316 µM
[11] = second compound 0.1 µM, first compound 0.1 µM
[12] = second compound 0.316 µM, first compound 0.000316 µM
[13] = second compound 0.316 µM, first compound 0.001 µM
[14] = second compound 0.316 µM, first compound 0.00316 µM
[15] = second compound 0.316 µM, first compound 0.01 µM
[16] = second compound 0.316 µM, first compound 0.0316 µM
[17] = second compound 0.316 µM, first compound 0.1 µM
[18] = second compound 1 µM, first compound 0.000316 µM
[19] = second compound 1 µM, first compound 0.001 µM
[20] = second compound 1 µM, first compound 0.00316 µM
[21] = second compound 1 µM, first compound 0.01 µM
[22] = second compound 1 µM, first compound 0.0316 µM
[23] = second compound 1 µM, first compound 0.1 µM
[24] = second compound 3.16 µM, first compound 0.000316 µM
[25] = second compound 3.16 µM, first compound 0.001 µM
[26] = second compound 3.16 µM, first compound 0.00316 µM
[27] = second compound 3.16 µM, first compound 0.01 µM
[28] = second compound 3.16 µM, first compound 0.0316 µM
[29] = second compound 3.16 µM, first compound 0.1 µM
[30] = second compound 10 µM, first compound 0.000316 µM
[31] = second compound 10 µM, first compound 0.001 µM
[32] = second compound 10 µM, first compound 0.00316 µM
[33] = second compound 10 µM, first compound 0.01 µM
[34] = second compound 10 µM, first compound 0.0316 µM
[35] = second compound 10 µM, first compound 0.1 µM
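Further: compound exposure lasted seven days before readout.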
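Wherever viability, T/C is given: 100% = DMSO vehicle control viability.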

## Cn1ncnc1[C@H]1c2n[nH]c(=O)c3cc(F)cc(c23)N[C@@H]1c1ccc(F)cc1 + C=CC(=O)N1CCN(c2nc(=O)n(-c3c(C)ccnc3C(C)C)c3nc(-c4c(O)cccc4F)c(F)cc23)C(C)C1
[1]
  IC50: > 100 nM
[2]
  IC50: > 100 nM
[3]
  IC50: > 100 nM
[4]
  IC50: > 100 nM
[5]
  IC50: > 100 nM
[6]
  viability, T/C: 105%
[7]
  viability, T/C: 89.7%
[8]
  viability, T/C: 106%
[9]
  viability, T/C: 94.3%
[10]
  viability, T/C: 75.1%
[11]
  viability, T/C: 76.8%
[12]
  viability, T/C: 95.2%
[13]
  viability, T/C: 83.4%
[14]
  viability, T/C: 94.8%
[15]
  viability, T/C: 76%
[16]
  viability, T/C: 93%
[17]
  viability, T/C: 96.2%
[18]
  viability, T/C: 79.9%
[19]
  viability, T/C: 71.8%
[20]
  viability, T/C: 94.1%
[21]
  viability, T/C: 67.6%
[22]
  viability, T/C: 102%
[23]
  viability, T/C: 89.9%
[24]
  viability, T/C: 82%
[25]
  viability, T/C: 85.1%
[26]
  viability, T/C: 88.3%
[27]
  viability, T/C: 120%
[28]
  viability, T/C: 76.8%
[29]
  viability, T/C: 99.2%
[30]
  viability, T/C: 102%
[31]
  viability, T/C: 75.4%
[32]
  viability, T/C: 80.5%
[33]
  viability, T/C: 86.9%
[34]
  viability, T/C: 84.9%
[35]
  viability, T/C: 93.6%

## COc1cc2nccc(Oc3ccc(NC(=O)C4(C(=O)Nc5ccc(F)cc5)CC4)cc3)c2cc1OC
Compound 0.316 µM
  viability, T/C: 86.4% [middle of 5 runs]
Curve of compound
  IC50: > 10000 nM

## CC(C)n1nc(-c2ccc3oc(N)nc3c2)c2c(N)ncnc21 + CC1OCC2(CCN(c3cnc(Sc4ccnc(N)c4Cl)c(N)n3)CC2)C1N
[1]
  IC50: > 100 nM
[2]
  IC50: > 100 nM
[3]
  IC50: > 100 nM
[4]
  IC50: > 100 nM
[5]
  IC50: > 100 nM
[6]
  viability, T/C: 92.4%
[7]
  viability, T/C: 90.3%
[8]
  viability, T/C: 100%
[9]
  viability, T/C: 89.7%
[10]
  viability, T/C: 86.2%
[11]
  viability, T/C: 77%
[12]
  viability, T/C: 104%
[13]
  viability, T/C: 85.6%
[14]
  viability, T/C: 88.6%
[15]
  viability, T/C: 60.8%
[16]
  viability, T/C: 71.3%
[17]
  viability, T/C: 65.5%
[18]
  viability, T/C: 86.5%
[19]
  viability, T/C: 84.9%
[20]
  viability, T/C: 78%
[21]
  viability, T/C: 102%
[22]
  viability, T/C: 89.7%
[23]
  viability, T/C: 80.7%
[24]
  viability, T/C: 60.2%
[25]
  viability, T/C: 91.6%
[26]
  viability, T/C: 90.1%
[27]
  viability, T/C: 93.9%
[28]
  viability, T/C: 91.8%
[29]
  viability, T/C: 92.9%
[30]
  viability, T/C: 76.8%
[31]
  viability, T/C: 85.7%
[32]
  viability, T/C: 89.2%
[33]
  viability, T/C: 105%
[34]
  viability, T/C: 112%
[35]
  viability, T/C: 100%

## CC1COCCN1c1cc(-c2ccnn2C)c2ccnc(-c3ccn[nH]3)c2n1 (configuration not stated) + C=CC(=O)N1CCN(c2nc(=O)n(-c3c(C)ccnc3C(C)C)c3nc(-c4c(O)cccc4F)c(F)cc23)C(C)C1
[1]
  IC50: 1820 nM
[2]
  IC50: 2100 nM
[3]
  IC50: 838 nM
[4]
  IC50: > 3160 nM
[5]
  IC50: 340 nM
[9]
  viability, T/C: 115%
[10]
  viability, T/C: 102%
[11]
  viability, T/C: 89.3%
Second compound 0.1 µM, first compound 0.316 µM
  viability, T/C: 82.7%
Second compound 0.1 µM, first compound 1 µM
  viability, T/C: 61.6%
Second compound 0.1 µM, first compound 3.16 µM
  viability, T/C: 38.1%
[15]
  viability, T/C: 87.4%
[16]
  viability, T/C: 94%
[17]
  viability, T/C: 78.4%
Second compound 0.316 µM, first compound 0.316 µM
  viability, T/C: 87.9%
Second compound 0.316 µM, first compound 1 µM
  viability, T/C: 69.8%
Second compound 0.316 µM, first compound 3.16 µM
  viability, T/C: 39.1%
[21]
  viability, T/C: 116%
[22]
  viability, T/C: 91.8%
[23]
  viability, T/C: 124%
Second compound 1 µM, first compound 0.316 µM
  viability, T/C: 78.5%
Second compound 1 µM, first compound 1 µM
  viability, T/C: 50.1%
Second compound 1 µM, first compound 3.16 µM
  viability, T/C: 39.6%
[27]
  viability, T/C: 110%
[28]
  viability, T/C: 97.9%
[29]
  viability, T/C: 89.4%
Second compound 3.16 µM, first compound 0.316 µM
  viability, T/C: 80.9%
Second compound 3.16 µM, first compound 1 µM
  viability, T/C: 68.6%
Second compound 3.16 µM, first compound 3.16 µM
  viability, T/C: 48.8%
[33]
  viability, T/C: 70.4%
[34]
  viability, T/C: 87%
[35]
  viability, T/C: 61.8%
Second compound 10 µM, first compound 0.316 µM
  viability, T/C: 56%
Second compound 10 µM, first compound 1 µM
  viability, T/C: 21.3%
Second compound 10 µM, first compound 3.16 µM
  viability, T/C: 20.3%

## CN(C)C/C=C/C(=O)Nc1cc2c(Nc3ccc(F)c(Cl)c3)ncnc2cc1O[C@H]1CCOC1 + CNCc1ccccc1-c1csc(C(C)Nc2nc(C)nc3cc(OC)c(OC)cc23)c1
[1]
  IC50: > 100 nM
[2]
  IC50: > 100 nM
[3]
  IC50: > 100 nM
[4]
  IC50: 10.5 nM
[5]
  IC50: < 0.316 nM
[6]
  viability, T/C: 118%
[7]
  viability, T/C: 89.8%
[8]
  viability, T/C: 70.9%
[9]
  viability, T/C: 63.4%
[10]
  viability, T/C: 84%
[11]
  viability, T/C: 77.8%
[12]
  viability, T/C: 81.1%
[13]
  viability, T/C: 74.8%
[14]
  viability, T/C: 70.2%
[15]
  viability, T/C: 59.4%
[16]
  viability, T/C: 69.5%
[17]
  viability, T/C: 54.6%
[18]
  viability, T/C: 64.8%
[19]
  viability, T/C: 59.2%
[20]
  viability, T/C: 55.2%
[21]
  viability, T/C: 51%
[22]
  viability, T/C: 89.2%
[23]
  viability, T/C: 68.9%
[24]
  viability, T/C: 60.6%
[25]
  viability, T/C: 61%
[26]
  viability, T/C: 47.7%
[27]
  viability, T/C: 43.5%
[28]
  viability, T/C: 61.6%
[29]
  viability, T/C: 37.3%
[30]
  viability, T/C: 0.31%
[31]
  viability, T/C: 0.87%
[32]
  viability, T/C: 0.47%
[33]
  viability, T/C: 0.36%
[34]
  viability, T/C: 0.8%
[35]
  viability, T/C: 0.42%

From PubChem BioAssay AID1963872 (Molecular Pharmacology Branch, DTP, NCI, 2024)
